Settings: Liquid; for viscosity: 101.33 kPa, Falling or rolling sphere viscometry; for mass density: Vibrating tube method

CCCCCCCCCCCCCC[P+](CCCCCC)(CCCCCC)CCCCCC.FC(F)(F)C(F)(F)[P-](F)(F)(F)(C(F)(F)C(F)(F)F)C(F)(F)C(F)(F)F
Settings | viscosity [mPa·s]
293.15 K | 470.83
303.15 K | 259.01
313.15 K | 155.29
323.15 K | 94.33
333.15 K | 65
343.15 K | 42.67
353.15 K | 30.35
363.15 K | 22.81
373.15 K | 17.53

Settings | mass density [kg/m3]
293.2 K, 100 kPa | 1185.7
293.21 K, 500 kPa | 1185.9
293.22 K, 1000 kPa | 1185.9
293.22 K, 2500 kPa | 1186.7
293.22 K, 5000 kPa | 1188.3
293.22 K, 10000 kPa | 1191.3
293.22 K, 25000 kPa | 1201.2
293.23 K, 15000 kPa | 1194.7
293.23 K, 20000 kPa | 1198
303.19 K, 100 kPa | 1177.4
303.19 K, 500 kPa | 1177.7
303.19 K, 1000 kPa | 1177.7
303.21 K, 2500 kPa | 1178.5
303.22 K, 5000 kPa | 1180.1
303.22 K, 10000 kPa | 1183.3
303.23 K, 15000 kPa | 1186.8
303.23 K, 20000 kPa | 1190.2
303.25 K, 25000 kPa | 1193.5
313.15 K, 100 kPa | 1169.1
313.17 K, 500 kPa | 1169.4
313.17 K, 1000 kPa | 1169.4
313.17 K, 2500 kPa | 1170.3
313.17 K, 5000 kPa | 1172
313.17 K, 10000 kPa | 1175.4
313.17 K, 15000 kPa | 1179.1
313.17 K, 20000 kPa | 1182.6
313.17 K, 25000 kPa | 1186
323.14 K, 15000 kPa | 1171.1
323.15 K, 500 kPa | 1161
323.15 K, 1000 kPa | 1161.1
323.15 K, 5000 kPa | 1163.8
323.15 K, 10000 kPa | 1167.3
323.15 K, 20000 kPa | 1174.7
323.16 K, 100 kPa | 1160.6
323.16 K, 2500 kPa | 1162
323.16 K, 25000 kPa | 1178.3
333.11 K, 100 kPa | 1152.6
333.12 K, 500 kPa | 1152.9
333.12 K, 1000 kPa | 1153
333.12 K, 2500 kPa | 1154
333.12 K, 10000 kPa | 1159.5
333.13 K, 5000 kPa | 1156.8
333.13 K, 15000 kPa | 1163.4
333.13 K, 25000 kPa | 1171
333.14 K, 20000 kPa | 1167.2
343.07 K, 500 kPa | 1145
343.07 K, 1000 kPa | 1145.1
343.08 K, 2500 kPa | 1146.1
343.08 K, 10000 kPa | 1151.9
343.08 K, 15000 kPa | 1156
343.09 K, 5000 kPa | 1148.1
343.09 K, 25000 kPa | 1163.7
343.1 K, 20000 kPa | 1159.9
343.13 K, 100 kPa | 1144.5
353.2 K, 100 kPa | 1136.5
353.22 K, 500 kPa | 1137
353.22 K, 2500 kPa | 1138.2
353.22 K, 5000 kPa | 1140.2
353.23 K, 1000 kPa | 1137.1
353.23 K, 10000 kPa | 1144.2
353.23 K, 15000 kPa | 1148.4
353.25 K, 20000 kPa | 1152.5
353.25 K, 25000 kPa | 1156.4

CCCC[N+]1(C)CCCC1.FC(F)(F)C(F)(F)[P-](F)(F)(F)(C(F)(F)C(F)(F)F)C(F)(F)C(F)(F)F
Settings | viscosity [mPa·s]
293.15 K | 333.79
303.15 K | 179.86
313.15 K | 106
323.15 K | 68.08
333.15 K | 45.37
343.15 K | 31.9
353.15 K | 23.42
363.15 K | 17.58
373.15 K | 13.71

Settings | mass density [kg/m3]
293.17 K, 5000 kPa | 1606.7
293.17 K, 10000 kPa | 1610.2
293.17 K, 15000 kPa | 1614.1
293.17 K, 20000 kPa | 1618
293.17 K, 25000 kPa | 1621.7
293.18 K, 2500 kPa | 1604.9
293.19 K, 100 kPa | 1603.7
293.19 K, 500 kPa | 1604
293.19 K, 1000 kPa | 1603.9
303.18 K, 100 kPa | 1592.8
303.19 K, 1000 kPa | 1593.1
303.2 K, 500 kPa | 1593.1
303.25 K, 10000 kPa | 1599.5
303.25 K, 20000 kPa | 1607.6
303.25 K, 25000 kPa | 1611.4
303.26 K, 2500 kPa | 1593.9
303.26 K, 5000 kPa | 1595.8
303.26 K, 15000 kPa | 1603.6
313.19 K, 10000 kPa | 1589.1
313.2 K, 100 kPa | 1581.9
313.2 K, 500 kPa | 1582.3
313.2 K, 1000 kPa | 1582.3
313.2 K, 5000 kPa | 1585.3
313.2 K, 20000 kPa | 1597.4
313.21 K, 2500 kPa | 1583.3
313.21 K, 15000 kPa | 1593.3
313.21 K, 25000 kPa | 1601.4
323.14 K, 100 kPa | 1571
323.14 K, 500 kPa | 1571.4
323.14 K, 2500 kPa | 1572.5
323.14 K, 10000 kPa | 1578.5
323.14 K, 15000 kPa | 1582.9
323.14 K, 20000 kPa | 1587.2
323.14 K, 25000 kPa | 1591.3
323.15 K, 1000 kPa | 1571.5
323.15 K, 5000 kPa | 1574.6
333.17 K, 100 kPa | 1560.4
333.17 K, 500 kPa | 1560.8
333.17 K, 1000 kPa | 1560.9
333.17 K, 5000 kPa | 1564.2
333.18 K, 2500 kPa | 1562
333.18 K, 10000 kPa | 1568.2
333.18 K, 15000 kPa | 1572.7
333.18 K, 20000 kPa | 1577.2
333.18 K, 25000 kPa | 1581.4
343.16 K, 100 kPa | 1549.9
343.17 K, 500 kPa | 1550.4
343.18 K, 1000 kPa | 1550.5
343.19 K, 2500 kPa | 1551.6
343.2 K, 5000 kPa | 1553.9
343.2 K, 10000 kPa | 1558.1
343.2 K, 15000 kPa | 1562.8
343.2 K, 20000 kPa | 1567.4
343.21 K, 25000 kPa | 1571.7
353.17 K, 100 kPa | 1539.5
353.17 K, 500 kPa | 1540.1
353.17 K, 5000 kPa | 1543.8
353.18 K, 1000 kPa | 1540.3
353.18 K, 2500 kPa | 1541.4
353.18 K, 15000 kPa | 1553
353.19 K, 10000 kPa | 1548.2
353.19 K, 20000 kPa | 1557.7
353.19 K, 25000 kPa | 1562.2

Reference: the NIST ThermoML archive (doi:10.1016/j.jct.2012.11.010)
